The test system of data set [1] is bicistronic HCV replicon (replicon RNA, GenBank Accession No. AJ242654). In words: HCV Replicon Assay. The conditions noted are these: Hepatitis C virus, 72 h, read-out: Replicon IC50. In kind it is cell-based. In general terms: In antiviral work, replicon cells carry a viral genome segment that copies itself.

These results are taken from patent US8735414B2 (priority 2009, dated 2014).

Some results are limits rather than exact numbers.

The IC50 is the midpoint of a concentration-inhibition curve. The melting point is the temperature of the solid-liquid transition. With `Cc1ccc2c(C#N)c(-c3ccc(S(=O)(=O)N[C@H](C)C(F)(F)F)cn3)n(C(C)C)c2c1` [compound 210, 6-[3-cyano-6-methyl-1-(propan-2-yl)-1H-indol-2-yl]-N-[(2R)-1,1,1-trifluoropropan-2-yl]pyridine-3-sulfonamide], the melting point lay in the range of 211 to 216 °C. Also, in data set [1], the IC50 was less than 500 nM.
The like results for `C[C@@H](NS(=O)(=O)c1ccc(-c2c(C#N)c3ccc(C4CC4)cc3n2C2CCCC2)nc1)C(F)(F)F` [compound 211, 6-(3-cyano-1-cyclopentyl-6-cyclopropyl-1H-indol-2-yl)-N-[(2R)-1,1,1-trifluoropropan-2-yl]pyridine-3-sulfonamide] were, in that order, 178 to 181 °C and less than 500 nM.
In turn, `Cc1ccc2c(C#N)c(-c3ccc(S(=O)(=O)N[C@H](C)C(F)(F)F)cn3)n(C3CCCCC3)c2c1` [compound 213, 6-(3-cyano-1-cyclohexyl-6-methyl-1H-indol-2-yl)-N-[(2R)-1,1,1-trifluoropropan-2-yl]pyridine-3-sulfonamide] registered a melting point of 208 to 212 °C. Also, in data set [1], the half-maximal inhibitory concentration (IC50) is less than 500 nM.
On the same counts, the results for `Cc1ccc2c(C#N)c(-c3ccc(S(=O)(=O)N[C@H](C)C(F)(F)F)cn3)n(C3CCCC3)c2c1` [compound 214, 6-(3-cyano-1-cyclopentyl-6-methyl-1H-indol-2-yl)-N-[(2R)-1,1,1-trifluoropropan-2-yl]pyridine-3-sulfonamide] are 176 to 182 °C and less than 500 nM.
On the same counts, the results for `C[C@@H](NS(=O)(=O)c1ccc(-c2c(C#N)c3ccc(F)cc3n2C2CCC2)nc1)C(F)(F)F` [compound 215, 6-(3-cyano-1-cyclobutyl-6-fluoro-1H-indol-2-yl)-N-[(2R)-1,1,1-trifluoropropan-2-yl]pyridine-3-sulfonamide] are 178 to 180 °C and 500 to 2000 nM.
The compound `C[C@@H](NS(=O)(=O)c1ccc(-c2c(C#N)c3ccc(F)cc3n2CC2CC2)nc1)C(F)(F)F` [compound 216, 6-[3-cyano-1-(cyclopropylmethyl)-6-fluoro-1H-indol-2-yl]-N-[(2R)-1,1,1-trifluoropropan-2-yl]pyridine-3-sulfonamide] had a melting point of 173 to 175 °C. The IC50 in data set [1] lay within 500 to 2000 nM.
On the same counts, the results for `CCCn1c(-c2ccc(S(=O)(=O)N[C@H](C)C(F)(F)F)cn2)c(C#N)c2ccc(F)cc21` [compound 217, 6-(3-cyano-6-fluoro-1-propyl-1H-indol-2-yl)-N-[(2R)-1,1,1-trifluoropropan-2-yl]pyridine-3-sulfonamide] are 195 to 197 °C and 2000 to 5000 nM.
For `C[C@@H](NS(=O)(=O)c1ccc(-c2c(C#N)c3ccc(F)cc3n2C2CCCC2)nc1)C(F)(F)F` [compound 218, 6-(3-cyano-1-cyclopentyl-6-fluoro-1H-indol-2-yl)-N-[(2R)-1,1,1-trifluoropropan-2-yl]pyridine-3-sulfonamide], the melting point lay in the range of 141 to 144 °C. In addition, the IC50 in data set [1] was less than 500 nM.
On the same counts, the results for `C[C@@H](NS(=O)(=O)c1ccc(-c2c(C#N)c3cc(F)ccc3n2C2CCC2)nc1)C(F)(F)F` [compound 219, 6-(3-cyano-1-cyclobutyl-5-fluoro-1H-indol-2-yl)-N-[(2R)-1,1,1-trifluoropropan-2-yl]pyridine-3-sulfonamide] are 109 to 110 °C and less than 500 nM.
On the same counts, the results for `C[C@@H](NS(=O)(=O)c1ccc(-c2c(C#N)c3cc(F)ccc3n2C2CCCC2)nc1)C(F)(F)F` [compound 220, 6-(3-cyano-1-cyclopentyl-5-fluoro-1H-indol-2-yl)-N-[(2R)-1,1,1-trifluoropropan-2-yl]pyridine-3-sulfonamide] are 158 to 160 °C and less than 500 nM.
The compound `N#Cc1c(-c2ncc(S(=O)(=O)NC(CF)CF)cn2)n(CC2CC2)c2ccc(Cl)cc12` [compound 221, 2-[5-chloro-3-cyano-1-(cyclopropylmethyl)-1H-indol-2-yl]-N-(1,3-difluoropropan-2-yl)pyrimidine-5-sulfonamide] registered a melting point of 245 to 250 °C. For the same compound, the IC50 in data set [1] was less than 500 nM.
On the same counts, the results for `C[C@@H](NS(=O)(=O)c1ccc(-c2c(C#N)c3ccc(Cl)cc3n2C2CCC2)nc1)C(F)(F)F` [compound 222, 6-(6-chloro-3-cyano-1-cyclobutyl-1H-indol-2-yl)-N-[(2R)-1,1,1-trifluoropropan-2-yl]pyridine-3-sulfonamide] are 202 to 206 °C and less than 500 nM.
On the same counts, the results for `COc1cc2c(cc1F)c(C#N)c(-c1ccc(S(=O)(=O)NC(CF)CF)cn1)n2CC1CC1` [compound 225, 6-[3-cyano-1-(cyclopropylmethyl)-5-fluoro-6-methoxy-1H-indol-2-yl]-N-(1,3-difluoropropan-2-yl)pyridine-3-sulfonamide] are 196 to 199 °C and less than 500 nM.
The like results for `N#Cc1c(-c2ccc(S(=O)(=O)NC(CF)CF)cn2)n(-c2ccccc2)c2cc(OC(F)F)ccc12` [compound 226, 6-[3-cyano-6-(difluoromethoxy)-1-phenyl-1H-indol-2-yl]-N-(1,3-difluoropropan-2-yl)pyridine-3-sulfonamide] were, in that order, 200 to 202 °C and less than 500 nM.
As for `N#Cc1c(-c2ccc(S(=O)(=O)NC(CF)CF)cn2)n(-c2ccccc2F)c2cc(OC(F)F)ccc12` [compound 227, 6-[3-cyano-6-(difluoromethoxy)-1-(2-fluorophenyl)-1H-indol-2-yl]-N-(1,3-difluoropropan-2-yl)pyridine-3-sulfonamide], the melting point lay within 188 to 191 °C. Further, in data set [1], the IC50 was less than 500 nM.
On the same counts, the results for `N#Cc1c(-c2ccc(S(=O)(=O)NC(CF)CF)cn2)n(-c2ccc(F)cc2)c2cc(OC(F)F)ccc12` [compound 228, 6-[3-cyano-6-(difluoromethoxy)-1-(4-fluorophenyl)-1H-indol-2-yl]-N-(1,3-difluoropropan-2-yl)pyridine-3-sulfonamide] are 192 to 198 °C and less than 500 nM.
The like results for `COc1ccc2c(C#N)c(-c3ccc(S(=O)(=O)NC(CF)CF)cn3)n(C3CCC3)c2c1` [compound 229, 6-(3-cyano-1-cyclobutyl-6-methoxy-1H-indol-2-yl)-N-(1,3-difluoropropan-2-yl)pyridine-3-sulfonamide] were, in that order, 174 to 177 °C and less than 500 nM.
On the same counts, the results for `COc1ccc2c(C#N)c(-c3ncc(S(=O)(=O)NC(CF)CF)cn3)n(C3CCC3)c2c1` [compound 230, 2-(3-cyano-1-cyclobutyl-6-methoxy-1H-indol-2-yl)-N-(1,3-difluoropropan-2-yl)pyrimidine-5-sulfonamide] are 217 to 219 °C and less than 500 nM.
As for `COc1ccc2c(C#N)c(-c3ncc(S(=O)(=O)NC(CF)CF)cn3)n(C3CCCC3)c2c1` [compound 231, 2-(3-cyano-1-cyclopentyl-6-methoxy-1H-indol-2-yl)-N-(1,3-difluoropropan-2-yl)pyrimidine-5-sulfonamide], the melting point fell in the range of 232 to 234 °C. In data set [1], the IC50 was less than 500 nM.
The compound `CCCn1c(-c2ncc(S(=O)(=O)NC(CF)CF)cn2)c(C#N)c2ccc(OC(F)F)cc21` [compound 232, 2-[3-cyano-6-(difluoromethoxy)-1-propyl-1H-indol-2-yl]-N-(1,3-difluoropropan-2-yl)pyrimidine-5-sulfonamide] registered a melting point of 177 to 179 °C. The IC50 in data set [1] is less than 500 nM.
On the same counts, the results for `N#Cc1c(-c2ncc(S(=O)(=O)NC(CF)CF)cn2)n(C2CCCC2)c2cc(OC(F)F)ccc12` [compound 233, 2-[3-cyano-1-cyclopentyl-6-(difluoromethoxy)-1H-indol-2-yl]-N-(1,3-difluoropropan-2-yl)pyrimidine-5-sulfonamide] are 199 to 201 °C and less than 500 nM.
`N#Cc1c(-c2ccc(S(=O)(=O)NC(CF)CF)cn2)n(C2CCCCC2)c2cc(F)ccc12` [compound 234, 6-(3-cyano-1-cyclohexyl-6-fluoro-1H-indol-2-yl)-N-(1,3-difluoropropan-2-yl)pyridine-3-sulfonamide]: the melting point fell in the range of 193 to 199 °C. The IC50 in data set [1] was less than 500 nM.
`N#Cc1c(-c2ncc(S(=O)(=O)NC(CF)CF)cn2)n(C2CCCCC2)c2cc(F)ccc12` [compound 235, 2-(3-cyano-1-cyclohexyl-6-fluoro-1H-indol-2-yl)-N-(1,3-difluoropropan-2-yl)pyrimidine-5-sulfonamide]: the melting point fell in the range of 213 to 218 °C. For the same compound, in data set [1], the IC50 is less than 500 nM.
The like results for `C[C@H](NS(=O)(=O)c1ccc(-c2c(C#N)c3ccc(C4CC4)cc3n2C2CCC2)nc1)C1CC1` [compound 236, 6-(3-cyano-1-cyclobutyl-6-cyclopropyl-1H-indol-2-yl)-N-[(1S)-1-cyclopropylethyl]pyridine-3-sulfonamide] were, in that order, 170 to 176 °C and less than 500 nM.
`Cc1ccc2c(C#N)c(-c3ccc(S(=O)(=O)N[C@@H](C)C4CC4)cn3)n(C3CCC3)c2c1` [compound 238, 6-(3-cyano-1-cyclobutyl-6-methyl-1H-indol-2-yl)-N-[(1S)-1-cyclopropylethyl]pyridine-3-sulfonamide] yielded a melting point of 181 to 187 °C. Also, the IC50 in data set [1] was less than 500 nM.
In the case of `N#Cc1c(-c2ncc(S(=O)(=O)NC(CF)CF)cn2)n(C2CCCC2)c2ccc(F)cc12` [compound 240, 2-(3-cyano-1-cyclopentyl-5-fluoro-1H-indol-2-yl)-N-(1,3-difluoropropan-2-yl)pyrimidine-5-sulfonamide], the melting point lay in the range of 201 to 206 °C. The IC50 in data set [1] was less than 500 nM.
As for `Cc1ccc2c(C#N)c(-c3ncc(S(=O)(=O)NC(CF)CF)cn3)n(C3CCCCC3)c2c1` [compound 241, 2-(3-cyano-1-cyclohexyl-6-methyl-1H-indol-2-yl)-N-(1,3-difluoropropan-2-yl)pyrimidine-5-sulfonamide], the melting point was 225 to 230 °C. In data set [1], the IC50 is less than 500 nM.
